{"source": "patent US11603355B2", "about": "“Charged ion channel blockers and methods for use” (Nocion Therapeutics, Inc., priority 2019, dated 2023)", "note": "Counter-ions that a name gives are not always drawn."}
{"biological_target": "T1, NaV1.7 (Homo sapiens, UniProt Q15858)", "T1 construct": "expressed in transfected cells; host or cells: HEK293 (tetracycline-inducible)", "T1 sequence (Q15858 whole entry)": "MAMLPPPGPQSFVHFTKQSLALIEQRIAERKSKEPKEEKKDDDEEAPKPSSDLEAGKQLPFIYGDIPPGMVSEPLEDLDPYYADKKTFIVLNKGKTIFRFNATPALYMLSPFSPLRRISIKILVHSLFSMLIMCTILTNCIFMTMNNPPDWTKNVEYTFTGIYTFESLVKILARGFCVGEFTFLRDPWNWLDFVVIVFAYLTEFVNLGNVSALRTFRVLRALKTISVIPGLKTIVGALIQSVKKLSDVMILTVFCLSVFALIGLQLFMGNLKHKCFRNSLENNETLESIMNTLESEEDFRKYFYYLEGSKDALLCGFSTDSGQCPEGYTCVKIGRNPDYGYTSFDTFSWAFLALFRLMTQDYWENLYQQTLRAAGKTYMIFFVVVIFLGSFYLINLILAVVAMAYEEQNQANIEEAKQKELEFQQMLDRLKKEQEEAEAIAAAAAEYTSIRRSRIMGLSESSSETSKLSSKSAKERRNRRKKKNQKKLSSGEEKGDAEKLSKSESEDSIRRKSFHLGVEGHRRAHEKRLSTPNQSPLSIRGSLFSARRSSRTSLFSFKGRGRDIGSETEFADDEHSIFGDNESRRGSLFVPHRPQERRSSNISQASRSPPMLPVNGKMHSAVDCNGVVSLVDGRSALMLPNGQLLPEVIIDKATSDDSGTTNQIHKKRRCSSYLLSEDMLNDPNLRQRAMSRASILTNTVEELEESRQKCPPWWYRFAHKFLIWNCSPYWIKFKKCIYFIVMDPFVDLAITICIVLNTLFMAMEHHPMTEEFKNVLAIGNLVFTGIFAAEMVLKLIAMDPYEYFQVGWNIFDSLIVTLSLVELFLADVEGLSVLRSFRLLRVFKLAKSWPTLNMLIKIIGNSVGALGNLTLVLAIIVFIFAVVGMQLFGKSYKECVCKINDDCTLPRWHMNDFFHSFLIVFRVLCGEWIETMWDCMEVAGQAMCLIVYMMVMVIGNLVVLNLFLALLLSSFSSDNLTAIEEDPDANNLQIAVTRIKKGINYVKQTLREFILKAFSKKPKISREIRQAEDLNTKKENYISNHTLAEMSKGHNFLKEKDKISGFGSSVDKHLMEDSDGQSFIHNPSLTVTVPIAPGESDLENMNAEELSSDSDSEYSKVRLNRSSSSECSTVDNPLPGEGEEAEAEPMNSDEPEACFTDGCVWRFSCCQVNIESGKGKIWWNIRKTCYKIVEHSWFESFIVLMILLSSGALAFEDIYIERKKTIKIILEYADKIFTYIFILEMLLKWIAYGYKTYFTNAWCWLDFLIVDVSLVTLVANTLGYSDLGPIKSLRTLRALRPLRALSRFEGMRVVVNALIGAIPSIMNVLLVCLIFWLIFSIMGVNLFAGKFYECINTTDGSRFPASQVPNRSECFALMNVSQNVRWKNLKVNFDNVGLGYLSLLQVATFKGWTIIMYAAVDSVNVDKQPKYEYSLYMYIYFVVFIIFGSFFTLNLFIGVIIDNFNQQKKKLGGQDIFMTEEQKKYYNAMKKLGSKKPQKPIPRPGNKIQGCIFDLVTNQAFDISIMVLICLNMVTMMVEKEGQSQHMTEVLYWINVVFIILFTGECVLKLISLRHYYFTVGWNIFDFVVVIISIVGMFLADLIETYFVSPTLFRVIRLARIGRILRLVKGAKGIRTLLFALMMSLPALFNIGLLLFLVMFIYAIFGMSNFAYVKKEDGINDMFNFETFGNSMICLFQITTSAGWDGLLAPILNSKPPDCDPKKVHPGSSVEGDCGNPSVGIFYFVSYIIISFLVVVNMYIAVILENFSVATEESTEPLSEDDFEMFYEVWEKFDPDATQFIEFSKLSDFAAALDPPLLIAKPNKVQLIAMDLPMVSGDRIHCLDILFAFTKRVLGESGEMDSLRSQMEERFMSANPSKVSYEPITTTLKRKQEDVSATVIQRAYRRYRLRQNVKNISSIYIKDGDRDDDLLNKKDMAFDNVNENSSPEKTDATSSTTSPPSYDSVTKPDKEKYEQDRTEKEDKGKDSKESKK", "experiment": "Manual patch clamp, external block of NaV1.7 current", "type": "cell-based", "conditions": "% inhibition at 10 μM test concentration, compound in external solution, HEK293 cells", "description": "(§1) Representative compounds of the invention were synthesized according to the described methods and tested for the ability to inhibit voltage-gated sodium channels.\n(§2) NaV1.7 was expressed in HEK293 cells upon induction with tetracycline. Cells were cultured in DMEM containing 10% dialyzed Fetal Bovine Serum (VWR, Radnor, Pa.), 1% Glutamax (VWR, Radnor, Pa.), 1% Penicillin-Streptomycin (VWR, Radnor, Pa.), 100 mg/L Hygromycin (Thermo Fisher Scientific, Waltham, Mass. and 5 mg/L Blasticidin (Alfa Aesar, Haverhill, Mass.). Cells were grown and maintained at 37° C. in a humidified environment containing 10% CO2 in air. Cells were detached from the culture flask for passage and harvested using 0.05% Trypsin-EDTA (Thermo Fisher Scientific, Waltham, Mass.). To induce NaV1.7, cells were induced with tetracycline (0.1-1 μg/mL, IBI Scientific, Peosta, Iowa) the day before recording and plated onto 24-well plates. Cells were washed with DPBS (VWR, Radnor, Pa.), trypsinized and then triturated five times in 10 mL of growth media to break apart cell aggregates. For one 24-well plate, 2 mL of cell suspension was mixed with 23 mL of fresh growth media and 0.1-1 μg/mL tetracycline added. 1 ml of mixed media with cells was then added to each well of a 24-well plate, with a 12 mm coverslip already placed in the bottom of the well. Cells were then incubated in 37° C. and 10% CO2 overnight.\n(§3) The intracellular solution contained the following (in mM) CsCl 135, NaCl 10, EGTA 10, HEPES 10, MgCl2 2, adjusted to pH 7.2 with CsOH. The external solution was a normal Ringer solution containing (in mM) NaCl 155, HEPES 10, glucose 10, KCl 3.5, CaCl2 1.5, MgCl2 1 adjusted to pH 7.4 with NaOH. CsCl is from Alfa Aesar, Haverhill, Mass. All other chemicals are from Sigma-Aldrich, St. Louis, Mo. In order to test the degree of internal block by test compounds the compounds were dissolved in internal solution at the indicated test concentration. […] In order to test the degree of external block by test compounds the compounds were dissolved in external solution at the indicated test concentration.\n(§4) 18-24 hours after cells were induced with tetracycline, coverslips were placed into a chamber filled with Normal Ringer solution at room temperature and the chamber placed on a microscope. Pipettes were pulled from borosilicate glass on a P97 puller (Sutter Instrument, Novato, Calif.) and polished with a MF-830 Microforge (Narishige International USA, Inc., Amityville, N.Y.) to have a resistance of 1.5-2.5 MΩ when filled with CsCl internal solution at room temperature. Healthy cells (those that are round and translucent with no visible blemishes) were chosen for seal formation. A seal was formed between the pipette and the cell, and a brief pulse of suction was used to “break in” and establish the whole-cell configuration. The membrane potential was held at −100 mV before the voltage protocol began. Only cells with series resistance between 1.5-5 MΩ were retained for analysis. The voltage protocol was as follows: Cells were held at −100 mV for 12 ms followed by a hyperpolarizing step to −105 mV for 12 ms to monitor the leak. Cells were then stepped back to −100 mV for 40 ms. Cells were then depolarized to −20 mV for 10 ms and then returned to −100 mV for 26 ms.\n(§5) Once the recording was started, the voltage protocol was run at 30 second intervals for 5 minutes to get a stable baseline. This is followed by 5 Hz stimulation of the same voltage protocol run until the end of experiment. […] The test compound is added for 5 minutes before washing out with normal Ringer's solution. Currents were recorded using PatchMaster software with Heka EPC10 (HEKA Electronics, Lambrecht, Germany). Only cells with inward current amplitudes at −20 mV between 400 pA and 4 nA were accepted. In addition, cells having leak currents greater than 10% of their current amplitudes were discarded. […]"}
{"compound": "1-benzyl-1-(2-((2-(dimethylcarbamoyl)-6-methylphenyl) amino)-2-oxoethyl) azepan-1-ium bromide [Compound 81A]", "Nav1.7 Extracellular Inhibition": "+ (“+” (<40%))"}
{"biological_target": "T1, NaV1.7", "experiment": "Manual patch clamp, external block of NaV1.7 current", "type": "cell-based", "conditions": "% inhibition at 10 μM test concentration, compound in external solution, HEK293 cells, read-out: Nav1.7 Extracellular Inhibition", "description": "as §1, §2, §3, §4, §5", "units": {"inhibition at 10 µM": "%"}}
{"compound": "Cc1cccc(C)c1N1CCC([N+]2(Cc3ccccc3)CCCCCCC2)C1=O.[Br-]", "note": "(stereo not shown) [Compound 90A]", "inhibition at 10 µM": "< 40"}
{"compound": "CC[N+](CC)(CCCc1ccccc1)CC(=O)Nc1c(C)cccc1C.[Br-]", "note": "[Compound 86A, N-(2-((2,6-dimethylphenyl)amino)-2-oxoethyl)-N, N-diethyl-3-phenylpropan-1-aminium bromide]", "inhibition at 10 µM": "< 40"}
{"compound": "Cc1cccc(-c2ccccc2)c1NC(=O)C[N+]1(Cc2ccccc2)CCCCCC1.[Br-]", "note": "[Compound 76A]", "inhibition at 10 µM": "40 to 70"}
{"compound": "Cc1cccc(C)c1N(C)C(=O)C[N+]1(Cc2ccccc2)CCCCCC1", "note": "[Compound 38A, 1-benzyl-1-(2-((2,6-dimethylphenyl) (methyl)amino)-2-oxoethyl) azepan-1-ium formate]", "inhibition at 10 µM": "< 40"}
{"compound": "COC(=O)C1CC[N+](CC(=O)Nc2c(C)cccc2C)(Cc2ccccc2)CC1.[Br-]", "note": "(stereo not shown) [Compound 44A, 1-benzyl-1-(2-((2,6-dimethylphenyl)amino)-2-oxoethyl)-4-(methoxycarbonyl) piperidin-1-ium bromide]", "inhibition at 10 µM": "< 40"}
{"compound": "CCCOC(=O)C1CCC[N+](CC(=O)Nc2c(C)cccc2C)(Cc2ccccc2)C1.[Br-]", "note": "(stereo not shown) [Compound 47A, 1-benzyl-1-(2-((2,6-dimethylphenyl)amino)-2-oxoethyl)-3-(propoxycarbonyl) piperidin-1-ium bromide]", "inhibition at 10 µM": "40 to 70"}
{"compound": "COC(=O)c1cccc(C[N+]2(CC(=O)Nc3c(C)cccc3C)CCCCC2)c1.[Br-]", "note": "[Compound 35A, 1-(2-((2,6-dimethylphenyl)amino)-2-oxoethyl)-1-(3-(methoxycarbonyl)benzyl) piperidin-1-ium bromide]", "inhibition at 10 µM": "< 40"}
{"compound": "Cc1cccc(C)c1NC(=O)C[N+]1(Cc2ccccc2)CCCC(C(N)=O)C1.[Br-]", "note": "(mixture of isomers) [Compound 53A, 1-benzyl-3-carbamoyl-1-(2-((2,6-dimethylphenyl)amino)-2-oxoethyl) piperidin-1-ium bromide]", "inhibition at 10 µM": "< 40"}
{"compound": "[2H]c1c([2H])c([2H])c(C[N+]2(CC(=O)Nc3c(C)cccc3C)CCCCCC2)c([2H])c1[2H].[Cl-]", "note": "[Compound 33A, 1-(2-((2,6-dimethylphenyl)amino)-2-oxoethyl)-1-((phenyl-d5)methyl) azepan-1-ium chloride]", "inhibition at 10 µM": "40 to 70"}
{"compound": "CCC(=O)Oc1cccc(C)c1NC(=O)C[N+]1(Cc2ccccc2)CCCCCC1.[Br-]", "note": "[Compound 80A, 1-benzyl-1-(2-((2-methyl-6-(propionyloxy)phenyl)amino)-2-oxoethyl) azepan-1-ium bromide]", "inhibition at 10 µM": "< 40"}
{"compound": "Cc1cccc(C)c1NC(=O)C[N+]1(Cc2ccccc2)CCCC(C(=O)OC(C)C)C1", "note": "(mixture of isomers) [Compound 46A, 1-benzyl-1-(2-((2,6-dimethylphenyl)amino)-2-oxoethyl)-3-(isopropoxycarbonyl) piperidin-1-ium trifluoroacetate salt]", "inhibition at 10 µM": "40 to 70"}
{"compound": "Cc1cccc(F)c1NC(=O)C[N+]1(Cc2ccccc2)CCCCCC1.[Br-]", "note": "[Compound 69A, 1-benzyl-1-(2-((2-fluoro-6-methylphenyl)amino)-2-oxoethyl)azepan-1-ium bromide]", "inhibition at 10 µM": "< 40"}
